# Experimental data reported in PMC8288134, “Synthesis, potential antitumor activity, cell cycle analysis, and multitarget mechanisms of novel hydrazones incorporating a 4-methylsulfonylbenzene scaffold: a molecular docking study” (Journal of Enzyme Inhibition and Medicinal Chemistry, 2021).
# Like-named read-outs stand apart in the source and are kept apart here.
# How the values were obtained:
# MALME-3M = experiment: NCI antitumor screen (SRB); format: cell-based; details: Homo sapiens, one dose 10 µM, read-out: Growth inhibition percentage (GI%)
# K-562 = experiment: NCI antitumor screen (SRB); format: cell-based; details: Homo sapiens, K562, read-out: Growth inhibition percentage (GI%)
# MOLT-4 = experiment: NCI antitumor screen (SRB); format: cell-based; details: Homo sapiens, one dose 10 µM, read-out: Growth inhibition percentage (GI%)
# PC-3 = experiment: NCI antitumor screen (SRB); format: cell-based; details: Homo sapiens, one dose 10 µM, read-out: Growth inhibition percentage (GI%)
# A549/ATCC = experiment: NCI antitumor screen (SRB); format: cell-based; details: Homo sapiens, one dose 10 µM, read-out: Growth inhibition percentage (GI%)
# SR = experiment: NCI antitumor screen (SRB); format: cell-based; details: Homo sapiens, one dose 10 µM, read-out: Growth inhibition percentage (GI%)
# HCT-116 = experiment: NCI antitumor screen (SRB); format: cell-based; details: Homo sapiens, read-out: Growth inhibition percentage (GI%)
# CAKI-1 = experiment: NCI antitumor screen (SRB); format: cell-based; details: Homo sapiens, one dose 10 µM, read-out: Growth inhibition percentage (GI%)
# A498 = experiment: NCI antitumor screen (SRB); format: cell-based; details: Homo sapiens, one dose 10 µM, read-out: Growth inhibition percentage (GI%)
# HL-60(TB) = experiment: cells; format: cell-based, human; details: Homo sapiens, HL-60, HL-60(TB); one dose 10 µM; read-out: Growth inhibition percentage (GI%)
# UACC-62 = experiment: NCI antitumor screen (SRB); format: cell-based; details: Homo sapiens, one dose 10 µM, read-out: Growth inhibition percentage (GI%)
# NCI-H522 = experiment: NCI antitumor screen (SRB); format: cell-based; details: Homo sapiens, NCI-H522, read-out: Growth inhibition percentage (GI%)
# IGROV1 = experiment: NCI antitumor screen (SRB); format: cell-based; details: Homo sapiens, IGROV-1, one dose 10 µM, read-out: Growth inhibition percentage (GI%)
# [1] = tested on: full panel of 59 cancer cell lines; experiment: NCI antitumor screen, full panel; details: one dose 10 µM
# UACC-257 = experiment: NCI antitumor screen (SRB); format: cell-based, human; details: Homo sapiens, one dose 10 µM, read-out: Growth inhibition percentage (GI%)
# OVCAR-3 = experiment: NCI antitumor screen (SRB); format: cell-based; details: Homo sapiens, one dose 10 µM, read-out: Growth inhibition percentage (GI%)
# SF-295 = experiment: NCI antitumor screen (SRB); format: cell-based; details: Homo sapiens, one dose 10 µM, read-out: Growth inhibition percentage (GI%)
# SNB-19 = experiment: NCI antitumor screen (SRB); format: cell-based; details: Homo sapiens, one dose 10 µM, read-out: Growth inhibition percentage (GI%)
# SN12C = experiment: NCI antitumor screen (SRB); format: cell-based; details: Homo sapiens, one dose 10 µM, read-out: Growth inhibition percentage (GI%)
# HCC-2998 = experiment: NCI antitumor screen (SRB); format: cell-based; details: Homo sapiens, one dose 10 µM, read-out: Growth inhibition percentage (GI%)
# HCT-15 = experiment: NCI antitumor screen (SRB); format: cell-based; details: Homo sapiens, one dose 10 µM, read-out: Growth inhibition percentage (GI%)
# SF-268 = experiment: NCI antitumor screen (SRB); format: cell-based; details: Homo sapiens, one dose 10 µM, read-out: Growth inhibition percentage (GI%)
# NCI-H460 = experiment: NCI antitumor screen (SRB); format: cell-based; details: Homo sapiens, one dose 10 µM, read-out: Growth inhibition percentage (GI%)
# TK-10 = experiment: NCI antitumor screen (SRB); format: cell-based; details: Homo sapiens, one dose 10 µM, read-out: Growth inhibition percentage (GI%)
# HS 578 T = experiment: NCI antitumor screen (SRB); format: cell-based; details: Homo sapiens, one dose 10 µM, read-out: Growth inhibition percentage (GI%)
# MCF7 = experiment: NCI antitumor screen (SRB); format: cell-based; details: Homo sapiens, one dose 10 µM, read-out: Growth inhibition percentage (GI%)
# MDA-MB-468 = experiment: NCI antitumor screen (SRB); format: cell-based; details: Homo sapiens, one dose 10 µM, read-out: Growth inhibition percentage (GI%)
# COLO 205 = experiment: NCI antitumor screen (SRB); format: cell-based; details: Homo sapiens, one dose 10 µM, read-out: Growth inhibition percentage (GI%)
# SW-620 = experiment: NCI antitumor screen (SRB); format: cell-based; details: Homo sapiens, one dose 10 µM, read-out: Growth inhibition percentage (GI%)
# T-47D = experiment: NCI antitumor screen (SRB); format: cell-based; details: Homo sapiens, T47D, one dose 10 µM, read-out: Growth inhibition percentage (GI%)
# 786-0 = experiment: NCI antitumor screen (SRB); format: cell-based; details: Homo sapiens, one dose 10 µM, read-out: Growth inhibition percentage (GI%)
# EKVX = experiment: NCI antitumor screen (SRB); format: cell-based; details: Homo sapiens, one dose 10 µM, read-out: Growth inhibition percentage (GI%)
# M14 = experiment: NCI antitumor screen (SRB); format: cell-based; details: Homo sapiens, one dose 10 µM, read-out: Growth inhibition percentage (GI%)
# HT29 = experiment: NCI antitumor screen (SRB); format: cell-based; details: Homo sapiens, HT-29, one dose 10 µM, read-out: Growth inhibition percentage (GI%)
# UO-31 = experiment: NCI antitumor screen (SRB); format: cell-based, human; details: Homo sapiens, UO-31, UO-31; one dose 10 µM; read-out: Growth inhibition percentage (GI%)
# ACHN = experiment: NCI antitumor screen (SRB); format: cell-based; details: Homo sapiens, one dose 10 µM, read-out: Growth inhibition percentage (GI%)
# CCRF-CEM = experiment: NCI antitumor screen (SRB); format: cell-based; details: Homo sapiens, one dose 10 µM, read-out: Growth inhibition percentage (GI%)
# NCI/ADR-RES = experiment: NCI antitumor screen (SRB); format: cell-based; details: Homo sapiens, one dose 10 µM, read-out: Growth inhibition percentage (GI%)
# OVCAR-5 = experiment: NCI antitumor screen (SRB); format: cell-based; details: Homo sapiens, one dose 10 µM, read-out: Growth inhibition percentage (GI%)
# NCI-H226 = experiment: NCI antitumor screen (SRB); format: cell-based; details: Homo sapiens, one dose 10 µM, read-out: Growth inhibition percentage (GI%)
# SK-MEL-28 = experiment: NCI antitumor screen (SRB); format: cell-based, human; details: Homo sapiens, SK-MEL-28, SK-MEL-28; one dose 10 µM; read-out: Growth inhibition percentage (GI%)
# MDA-MB-435 = experiment: NCI antitumor screen (SRB); format: cell-based; details: Homo sapiens, one dose 10 µM, read-out: Growth inhibition percentage (GI%)
# LOX IMVI = experiment: NCI antitumor screen (SRB); format: cell-based; details: Homo sapiens, one dose 10 µM, read-out: Growth inhibition percentage (GI%)
# PRMI-8226 = experiment: NCI antitumor screen (SRB); format: cell-based; details: Homo sapiens, one dose 10 µM, read-out: Growth inhibition percentage (GI%)
# SF-539 = experiment: NCI antitumor screen (SRB); format: cell-based; details: Homo sapiens, one dose 10 µM, read-out: Growth inhibition percentage (GI%)
# DU-145 = experiment: NCI antitumor screen (SRB); format: cell-based; details: Homo sapiens, one dose 10 µM, read-out: Growth inhibition percentage (GI%)
# [2] = tested on: ovarian cancer tumour cell lines; experiment: NCI antitumor screen, subpanel; format: cell-based; details: 10 µM
# SNB-75 = experiment: NCI antitumor screen (SRB); format: cell-based; details: Homo sapiens, one dose 10 µM, read-out: Growth inhibition percentage (GI%)
# OVCAR-4 = experiment: NCI antitumor screen (SRB); format: cell-based; details: Homo sapiens, one dose 10 µM, read-out: Growth inhibition percentage (GI%)
# BT-549 = experiment: NCI antitumor screen (SRB); format: cell-based; details: Homo sapiens, one dose 10 µM, read-out: Growth inhibition percentage (GI%)
# MDA-MB-231/ATCC = experiment: NCI antitumor screen (SRB); format: cell-based; details: Homo sapiens, one dose 10 µM, read-out: Growth inhibition percentage (GI%)
# KM12 = experiment: NCI antitumor screen (SRB); format: cell-based; details: Homo sapiens, one dose 10 µM, read-out: Growth inhibition percentage (GI%)
# RXF 393 = experiment: NCI antitumor screen (SRB); format: cell-based; details: Homo sapiens, one dose 10 µM, read-out: Growth inhibition percentage (GI%)
# NCI-H23 = experiment: NCI antitumor screen (SRB); format: cell-based; details: Homo sapiens, one dose 10 µM, read-out: Growth inhibition percentage (GI%)
# OVCAR-8 = experiment: NCI antitumor screen (SRB); format: cell-based; details: Homo sapiens, one dose 10 µM, read-out: Growth inhibition percentage (GI%)
# SK-OV-3 = experiment: NCI antitumor screen (SRB); format: cell-based; details: Homo sapiens, one dose 10 µM, read-out: Growth inhibition percentage (GI%)
# U251 = experiment: NCI antitumor screen (SRB); format: cell-based; details: Homo sapiens, U-251, one dose 10 µM, read-out: Growth inhibition percentage (GI%)
compound,measurement,setting,value
"CS(=O)(=O)c1ccc(C(=O)NN=Cc2ccc(Cl)c(Cl)c2)cc1 [Compound 18, N'-(3,4-Dichlorobenzylidene)-4-(methylsulfonyl)benzohydrazide]",inhibition at 10 µM,MALME-3M,12.2%
same,inhibition at 10 µM,K-562,17.7%
same,inhibition at 10 µM,MOLT-4,31.7%
same,inhibition at 10 µM,PC-3,10.3%
same,inhibition at 10 µM,A549/ATCC,20.1%
same,inhibition at 10 µM,SR,24.5%
same,inhibition at 10 µM,HCT-116,12.7%
same,inhibition at 10 µM,CAKI-1,10.1%
same,inhibition at 10 µM,A498,16%
same,inhibition at 10 µM,HL-60(TB),30.6%
same,inhibition at 10 µM,UACC-62,11.2%
same,inhibition at 10 µM,NCI-H522,17.2%
same,inhibition at 10 µM,IGROV1,15%
same,PCE: positive cytotoxic effect (number of cell lines with GI 10 to 100% / total number of cell lines),[1],14/59
same,inhibition at 10 µM,UACC-257; UACC-257,21.8%
"Cc1ccc(NC(=O)c2ccc(CN3CCN(C)CC3)cc2)cc1Nc1nccc(-c2cccnc2)n1 [Imatinib, imatinib, reference compound]",inhibition at 10 µM,MALME-3M,< 10%
same,inhibition at 10 µM,MOLT-4,18%
same,inhibition at 10 µM,OVCAR-3,< 10%
same,inhibition at 10 µM,SF-295,15.1%
same,inhibition at 10 µM,SNB-19,< 10%
same,inhibition at 10 µM,SN12C,< 10%
same,inhibition at 10 µM,HCC-2998,< 10%
same,inhibition at 10 µM,HCT-15,11.5%
same,inhibition at 10 µM,SF-268,< 10%
same,inhibition at 10 µM,NCI-H460,< 10%
same,inhibition at 10 µM,TK-10,< 10%
same,inhibition at 10 µM,HS 578 T,< 10%
same,inhibition at 10 µM,MCF7,< 10%
same,inhibition at 10 µM,PC-3,10.6%
same,inhibition at 10 µM,MDA-MB-468,29.1%
same,inhibition at 10 µM,A549/ATCC,< 10%
same,inhibition at 10 µM,COLO 205,< 10%
same,inhibition at 10 µM,SW-620,< 10%
same,inhibition at 10 µM,SR,14.6%
same,inhibition at 10 µM,T-47D,18.6%
same,inhibition at 10 µM,786-0,< 10%
same,inhibition at 10 µM,EKVX,15.7%
same,inhibition at 10 µM,HCT-116,18.6%
same,inhibition at 10 µM,M14,< 10%
same,inhibition at 10 µM,HT29,47.1%
same,inhibition at 10 µM,UO-31,< 10%
same,inhibition at 10 µM,CAKI-1,< 10%
same,inhibition at 10 µM,ACHN,< 10%
same,inhibition at 10 µM,CCRF-CEM,< 10%
same,inhibition at 10 µM,NCI/ADR-RES,< 10%
same,inhibition at 10 µM,OVCAR-5,< 10%
same,inhibition at 10 µM,NCI-H226,10.6%
same,inhibition at 10 µM,A498,13.7%
same,inhibition at 10 µM,SK-MEL-28,< 10%
same,inhibition at 10 µM,MDA-MB-435,< 10%
same,inhibition at 10 µM,LOX IMVI,11.6%
same,inhibition at 10 µM,HL-60(TB),< 10%
same,inhibition at 10 µM,UACC-62,< 10%
same,inhibition at 10 µM,PRMI-8226,12.6%
same,inhibition at 10 µM,SF-539,24.5%
same,inhibition at 10 µM,DU-145,14.4%
same,GI (range over subpanel cell lines),[2],< 10.0%
same,inhibition at 10 µM,SNB-75,< 10%
same,inhibition at 10 µM,OVCAR-4,< 10%
same,inhibition at 10 µM,BT-549,< 10%
same,inhibition at 10 µM,MDA-MB-231/ATCC,11.2%
same,inhibition at 10 µM,IGROV1,< 10%
same,percentage mean growth (MG),[1]; mean over cell lines,92.62%
same,inhibition at 10 µM,KM12,< 10%
same,inhibition at 10 µM,RXF 393,< 10%
same,inhibition at 10 µM,NCI-H23,17.1%
same,inhibition at 10 µM,OVCAR-8,< 10%
same,inhibition at 10 µM,SK-OV-3,< 10%
same,inhibition at 10 µM,"UACC-257; UACC-257, UACC-257",< 10%
same,inhibition at 10 µM,U251,10.6%
